# How the values were obtained:
# analgesia = conditions: mouse, in vivo; cited from earlier work
# acute pain, bunionectomy = assay: Efficacy (SPID48) of 3 to 2 product vs morphine vs oxycodone, bunionectomy study (Example 2); format: in vivo, human; conditions: for Mean SPID48 Score: 48 hr; for pain control by SPID48 (judged analgesic dose): low doses alone: morphine 6 mg, oxycodone 4 mg
Structure (SMILES),"interaction with morphine, morphine-6-β-glucuronide, codeine, and 6-acetylmorphine (analgesia)","Mean SPID48 Score (acute pain, bunionectomy; 6 mg q6h)","Mean SPID48 Score (acute pain, bunionectomy; 12 mg q6h)","pain control by SPID48 (judged analgesic dose) (acute pain, bunionectomy)","Mean SPID48 Score (acute pain, bunionectomy; 4 mg q6h)","Mean SPID48 Score (acute pain, bunionectomy; 8 mg q6h)"
CCC(=O)C(C[C@@H](C)N(C)C)(c1ccccc1)c1ccccc1 [L-methadone],exhibited synergy,–,–,–,–,–
"CN1CC[C@]23c4c5ccc(O)c4O[C@H]2[C@@H](O)C=C[C@H]3[C@H]1C5 [Morphine, morphine]",–,51,106,gave pain control,–,–
"COc1ccc2c3c1O[C@H]1C(=O)CC[C@@]4(O)[C@@H](C2)N(C)CC[C@]314 [Oxycodone, oxycodone]",–,–,–,gave pain control,60,99

# Source: patent US20110046173A1 (priority 2009, published 2011)
